Assay results taken from patent US20060046972A1, “Cytotoxic nucleoside analog compound 003 for treating cancer” (Parker Hughes Institute, priority 2004, published 2006).
“Also recorded” adds a separate entry of the source. Read-outs that look alike come from different tables or passages of the source.

Key:
[1] = Pharmacokinetics in CD-1 mice after intravenous or oral Compound 003; type: in vivo; conditions: female, CD-1, mouse
Experimental: Each plasma sample (200 μL) was mixed 1:4 with acetone (800 μL) and vortexed for at least 30 seconds. Following centrifugation, the supernatant was transferred into a clean tube and dried under nitrogen. A 50 μL solution of 50% methanol in 200 mM HCl was used to reconstitute the extraction residue, and 35 μL was subjected to analytical HPLC. The analytical column used was a 250×4 mm Lichrospher 100, RP-18 (5 μm) and the guard column was a 4×4 mm Lichrospher 100, RP-18 (5 μm). The mobile phase was degassed automatically by the electronic degasser system. The column was equilibrated and eluted under gradient conditions utilizing a flow rate of 1.0 ml/min at ambient temperature. The linear gradient mobile phase was: 0 minute, 100% 10 mM ammonium phosphate buffer (pH 3.7); 20 minutes, 20% acetonitrile, 80% ammonium phosphate buffer (pH 3.7); 20.1-50 minutes, 28% acetonitrile, 72% water (0.1% HAC). The wavelength of detection was set at 270 nm. Peak width, response time and slit werep, set at >0.03 minutes, 0.5 s and 8 nm, respectively.
Female CD-1 mice (6-8 weeks old) (Charles River, Wilmington, Mass.) were housed in a USDA-accredited animal care facility under standard environmental conditions (12-h light/12-h dark photoperiod, 22±1° C., 60±10% relative humidity). All rodents were housed in microisolator cages (Lab Products, Inc., N.J.) containing autoclaved bedding. Mice were allowed free access to autoclaved pellet food and tap water throughout the study. All animal studies are approved by the Parker Hughes Institute Animal Care and Use Committee, and all animal care procedures conformed to the principles outlined in the Guide for the Care and Use of Laboratory Animals (National Research Council;. National Academy Press, Washington D.C. 1996).
Compound 003 (200 mg/kg) dissolved in DMSO was administered intravenously via tail vein to non-fasted mice or orally via gavage to 12-h fasted mice. Four to six mice per time-point were used for pharmacokinetic studies. Blood samples (˜500 μL) were obtained from the ocular venous plexus by retro-orbital venipuncture at 0, 5, 10, 15, 30, 45 minutes, and 1 h, 1.5 h, 2 h, 4 h, 6 h and 8 h after oral administration. All collected blood-samples were heparinized and centrifuged at 7000×g for 5 minutes to separate the plasma fraction from the whole blood. The plasma samples were then processed immediately using the extraction procedure described above.
Pharmacokinetic modeling and parameter calculations were carried out using the WinNonlin Professional Version 3.0 (Pharsight, Inc., Mountain, Calif.) pharmacokinetics software (Chen, C. L., et al., (1999) Pharm Res. 16:117; Chen, C. L., et al., (1999) Pharm Res. 16:1003; Uckun, F. M., et al., (1999) Clin Cancer Res. 5:2954). An appropriate model was chosen on the basis of the lowest sum of weighted squared residuals, the lowest Schwartz Criterion (SC), the lowest Akaike's Information Criterion (AIC) value, the lowest standard errors of the fitted parameters, and the dispersion of the residuals. The elimination half-life was estimated by linear regression analysis of the terminal phase of the plasma concentration-time profile. The systemic clearance (CL) was determined by dividing the dose by the AUC.

BT20 breast cancer cells = assay: Confocal laser scanning microscopy of microtubules / mitotic spindle, BT20; type: cell-based, human; conditions: 185 μM for 24 hours (AZT: similar concentrations)
Experimental: Immunofluorenscence was used to examine the spindle features of human cancer cell lines treated with Compound 003 or 0.5% DMSO. […] The coverslips were incubated with antibodies raised against α-tubulin, γ-tubulin (Sigma Chemical Co., St Louis, Mo.) (40 min 37° C.), washed in PBS-Tx-100, and incubated with an appropriate secondary antibody conjugated to FITC (Jackson ImmunoResearch, Westgrove, Pa.). Cellular DNA was labeled with 5 μM TOTO3 (Molecular Probes, Eugene, Oreg.) for 20 minutes. Coverslips were immediately inverted onto slides in Vectashield (Vector Labs, Burlingame, Calif.) to prevent photobleaching, sealed with nail varnish and stored at −20° C. The slides were examined using a Bio-Rad MRC-1024 Laser Scanning Confocal Microscope equipped with a Kr/Ar laser (BioRad, Hercules, Calif.) mounted on a Nikon Eclipse E800 upright microscope with high numerical aperture objectives (Nikon, Melville, N.Y.). Digital data were processed using Lasersharp (BioRad) and Adobe Photoshop software (Adobe Systems, Mountain View, Calif.). ( See, for example, Navara, et al., 2001, Anticancer Drugs. 12:369; Malaviya, et al., 2002, Leuk Lymphoma. 43, 1329; and Ghosh, 1998, Clin Cancer Res. 4, 2657).

[2] = Wang et al. (1996); cited from earlier work
[3] = tested on: esterase-mediated metabolism of Compound 003 in BT20 cells; assay: Inhibition of ala-AZT-MP formation by esterase inhibitors, BT20; type: cell-based, human
Experimental: (§1) BT20 breast cancer cells were cultured in a medium composed of MEM, 10% FBS, 0:1 mM of nonessential amino acids and Earles salts, and 1% penicillin/streptornyclin Nalm6 cells were maintained in a medium composed of RPMI, 10% fetal bovine serum (FBS) and 1% penicillin/streptomycin. BT20 cells were seeded in 6-cm petri-dishes at 4 million cells per plate. Nalm6 cells at a density of 10^6 cells per ml were also utilized in drug metabolism study. Either one plate of adherent cells or 10 million nonadherent cells were utilized at each experiment. Cells were incubated with DMSO or 100 μM of esterase inhibitor, paraoxon, bis(p-nitrophenyl)phosphate (BNPP), physostigmine, or phenylmethylsulfonyl fluoride (PMSF) (Sigma) for 3.0 minutes, followed by 1 hour incubation of 100 μM Compound 003. After incubation, cells were washed two times with ice-cold PBS, and extracted by addition of 60% methanol. Cell lysates were kept at −20° C. overnight, after which lysates were centrifuged at 15,000×g for 10 minutes to remove the cell debris. One hundred microliters of these lysates were injected directly to HPLC. The amount of metabolite product of the esterase reaction, ala-AZT-MP, was measured to examine the effect of inhibitors on esterase-mediated metabolism of Compound 003.

[4] = tested on: BT20 breast cancer cell line; assay: Intracellular metabolism of Compound 003 to ala-AZT-MP, BT20; type: in vitro ADME, human
Description: (§2) Intracellular metabolism of Compound 003 was studied in CEM T-lineage lymphoma cell line, BT20 breast cancer cell line, T98 glioblastoma cell line, and Nalm-6 B-lineage leukemia cell line. CEM and Nalm6 cells were maintained in RPMI supplemented with 10% fetal bovine serum, and 1% penicillin/streptomycin. BT20 and T98 cells w.ere cultured in a medium composed of MEM, 10% fetal bovine serum, 0.1-mM of nonessential amino acids and Earles salts, and 1% penicillin/streptomycin. CEM and Nalm6 cells at a density of 10^6 cells per ml were utilized in the drug metabolism study. BT20 and T98 cells were seeded in 6-cm petri-dishes at 4 million cells and 2 million cells per plate, respectively, the day before the experiment. Either one plate of adherent cells or 10 million non-adherent cells was utilized at each time point. Cells were incubated with various concentrations of the compounds up to 24 hrs at 37° C. After incubation, cells were washed 2 times with ice-cold PBS, and extracted by addition of 0.5-1 ml of 60% methanol. Cell lysates were kept at −20° C. overnight, after which lysates were centrifuged at 15000×g for 10 minutes to remove the cell debris. One hundred microliters of these lysates were injected directly to HPLC. For half-life study, cells at the same density as in drug metabolism study were treated with 100 μM Compound 003 for 2 hrs, after which cells were washed 2 times with ice-cold PBS, and resuspended in warm media until the time they were harvested. For uptake and efflux study, cells were seeded at 2 million cells in 2 ml of media. […] With efflux experiments, cells 1×10^6/mL (the same density as in the uptake study) were incubated with 100 μM Compound 003 for 1 hr, washed 2 times with ice-cold PBS, and resuspended with culture medium without drug, and the metabolite efflux from cells to the medium was measured after 6 hr of incubation. […]

[5] = tested on: Nalm-6 B-lineage leukemia cell line; assay: Intracellular metabolism of Compound 003 to ala-AZT-MP, Nalm6; type: in vitro ADME, human
Description: as §2, with “methanol.” for “methanol. Cell lysates were kept at −20° C. overnight, after which lysates were centrifuged at 15000×g for 10 minutes to remove the cell debris. One hundred microliters of these lysates were injected directly to HPLC. For half-life study, cells at the same density as in drug metabolism study were treated with 100 μM Compound 003 for 2 hrs, after which cells were washed 2 times with ice-cold PBS, and resuspended in warm media until the time they were harvested. For uptake and efflux study, cells were seeded at 2 million cells in 2 ml of media.”

[6] = tested on: CEM T-lineage lymphoma cell line; assay: Intracellular metabolism of Compound 003 to ala-AZT-MP, CEM; type: in vitro ADME, human
Description: as §2, with “methanol.” for “methanol. Cell lysates were kept at −20° C. overnight, after which lysates were centrifuged at 15000×g for 10 minutes to remove the cell debris. One hundred microliters of these lysates were injected directly to HPLC. For half-life study, cells at the same density as in drug metabolism study were treated with 100 μM Compound 003 for 2 hrs, after which cells were washed 2 times with ice-cold PBS, and resuspended in warm media until the time they were harvested. For uptake and efflux study, cells were seeded at 2 million cells in 2 ml of media.”

BT20 cells = assay: Metabolite efflux from cells to the medium; type: in vitro ADME, human; conditions: 100 μM Compound 003 1 hr, efflux after 6 hr
Description: Intracellular metabolism of Compound 003 was studied in CEM T-lineage lymphoma cell line, BT20 breast cancer cell line, T98 glioblastoma cell line, and Nalm-6 B-lineage leukemia cell line. CEM and Nalm6 cells were maintained in RPMI supplemented with 10% fetal bovine serum, and 1% penicillin/streptomycin. BT20 and T98 cells w.ere cultured in a medium composed of MEM, 10% fetal bovine serum, 0.1-mM of nonessential amino acids and Earles salts, and 1% penicillin/streptomycin. CEM and Nalm6 cells at a density of 10^6 cells per ml were utilized in the drug metabolism study. BT20 and T98 cells were seeded in 6-cm petri-dishes at 4 million cells and 2 million cells per plate, respectively, the day before the experiment. Either one plate of adherent cells or 10 million non-adherent cells was utilized at each time point. Cells were incubated with various concentrations of the compounds up to 24 hrs at 37° C. After incubation, cells were washed 2 times with ice-cold PBS, and extracted by addition of 0.5-1 ml of 60% methanol. […] With efflux experiments, cells 1×10^6/mL (the same density as in the uptake study) were incubated with 100 μM Compound 003 for 1 hr, washed 2 times with ice-cold PBS, and resuspended with culture medium without drug, and the metabolite efflux from cells to the medium was measured after 6 hr of incubation.

[7] = tested on: esterase-mediated metabolism of Compound 003 in Nalm6 cells; assay: Inhibition of ala-AZT-MP formation by esterase inhibitors, Nalm6; type: cell-based, human; conditions: 100 μM inhibitor, then 100 μM Compound 003 1 hour
Experimental: as §1

[8] = iv, plasma metabolite following i.v. 200 mg/kg Compound 003
[9] = iv, plasma metabolite following i.v. 200 mg/kg Compound 003, read-out: elimination half-life (t1/2)
[10] = po, plasma metabolite following p.o. 200 mg/kg Compound 003
[11] = plasma metabolite following oral 200 mg/kg Compound 003, read-out: elimination half-life

| Compound | AUC [1, 8] | Cmax [1, 8] | Tmax [1, 8] | half-life [1, 9] | AUC [1, 10] | Cmax [1, 10] | Tmax [1, 10] | half-life [1, 11] | potency order of esterase inhibitors [3] | also measured |
| --- | --- | --- | --- | --- | --- | --- | --- | --- | --- | --- |
| Cc1cn([C@H]2C[C@H](N=[N+]=[N-])[C@@H](CO)O2)c(=O)[nH]c1=O [AZT, 3′-azido-3′-deoxythymidine, reference compound] | 152 µM·h | 64.3 µM | 50.4 min | 35 min | 386 ± 124 µM·h | 46.9 µM | 144 min | 149 min | – | effect on microtubules (BT20 breast cancer cells): no effect on microtubules; elimination t1/2 of AZT given as such [2]: ~21.2 min |
| O=[N+]([O-])c1ccc(OP(=O)(O)Oc2ccc([N+](=O)[O-])cc2)cc1 [BNPP, Bis(p-nitrophenyl)phosphate] | – | – | – | – | – | – | – | – | paraoxon>BNPP>PMSF>physostigmine | – |
| O=S(=O)(F)Cc1ccccc1 [PMSF, phenylmethyl sulfonyl fluoride] | – | – | – | – | – | – | – | – | paraoxon>BNPP>PMSF>physostigmine | – |
| Cc1cn(C2CC(N=[N+]=[N-])C(COP(=O)(O)NC(C)C(=O)O)O2)c(=O)[nH]c1=O (centres unmarked) [ala-AZT-MP, 3′-azido-3′-deoxythymidine-5′-alaninyl phosphate] | 191 µM·h | 1880 µM | 1.2 min | 33.2 min | 20.7 ± 8.5 µM·h | 9.8 µM | 4.5 min | 94.5 min | – | further intracellular conversion of ala-AZT-MP [4]: preferentially converted to AZT-MP; intracellular accumulation of ala-AZT-MP, BT20 relative to the other three cell lines ([4]; 25-100 μM Compound 003, 3 hr): 6-12 fold; further intracellular conversion of ala-AZT-MP [5]: converted to AZT first then to AZTmp; Tmax ([1]; plasma, 200 mg/kg, mice, after Compound 003, route not distinguished): < 5 min; further intracellular conversion of ala-AZT-MP [6]: only AZT was detectable; level of ala-AZT-MP formation, CEM relative to Nalm6 ([6]; intact cells): 2 fold; efflux of ala-AZT-MP (BT20 cells): only detectable from BT20 cells |
| CCOP(=O)(OCC)Oc1ccc([N+](=O)[O-])cc1 [paraoxon] | – | – | – | – | – | – | – | – | paraoxon>BNPP>PMSF>physostigmine | inhibition of metabolism of Compound 003 to ala-AZT-MP [7]: most potent inhibitor; also recorded: only paraoxon was effective in inhibiting the metabolism |
